Source: the NIST ThermoML archive (doi:10.1016/j.jct.2016.06.011)
± gives the expanded uncertainty stated by the source.

Assay: wn = mass fraction of the nth substance listed
Details: 101.3 kPa, Liquid, Pycnometric method

Structure (SMILES)	mass density (283.15 K, w1 = 0.08506) [kg/m3]	mass density (293.15 K, w1 = 0.1354) [kg/m3]	mass density (303.15 K, w1 = 0.21) [kg/m3]	mass density (283.15 K, w1 = 0.3211) [kg/m3]	mass density (293.15 K, w1 = 0.4232) [kg/m3]	mass density (303.15 K, w1 = 0.5289) [kg/m3]
O=C1OC(=O)c2ccccc21 [isobenzofuran-1,3-dione] + C1COCCO1	1034 ± 14	1051 ± 14	1061 ± 14	–	–	–
O=Cc1ccc2ccccc2c1 [β-naphthaldehyde] + C1COCCO1	–	–	–	1049 ± 14	1056 ± 14	1063 ± 14
